We go through 4 molecules from patent US9062002B2, “Substituted pyridine derivatives as FabI inhibitors” (Aurigene Discovery Technologies Limited, priority 2011, dated 2015).

Values after ≈ are worked out from the molar mass of the structure shown. Bounds are passed on as bounds.

The subject of one series is MRSA. Briefly: MIC by broth microdilution method. The conditions noted are these: Staphylococcus aureus; MRSA, broth microdilution; read-out: MIC Vs MRSA (μg/ml) MRSA. The format is cell-based.
The subject of another series is Fab I. As to conditions: 1 μM compound.
A short description of series [1]: Metabolic stability study in mouse liver microsomes. The format is in vitro ADME. The conditions noted are these: 1 μM, 37° C. The procedure:
The above selected compounds have protected mice from infection at ED50 doses. Metabolic Stability Study: In vitro metabolic stability of the compounds was done in mouse liver microsomes prepared in house as per standard protocol. Compounds were tested at 1 μM concentration. Compounds were incubated for 15 and 60 minutes at 37° C. with 100 rpm in shaker bath. After the incubation samples were analysed by LC/MS (API-4000). Respective control (Propranalol) was included in the study.

A further series relates to MRSE. Briefly: MIC by broth microdilution method. Type of series: cell-based. As to conditions: Staphylococcus epidermidis, MRSA / MRSE; MRSE, broth microdilution; read-out: MIC Vs MRSA (μg/ml) MRSE. (In broth dilution the organism is exposed to a series of concentrations in liquid medium.)
The subject of a further series is MSSA. In words: MIC by broth microdilution method. The format is cell-based. As to conditions: Staphylococcus aureus, MRSA / MSSA; MSSA, broth microdilution; read-out: MIC Vs MRSA (μg/ml) MSSA.

With `CC(=O)Nc1ccc(/C=C/C(=O)N2CC=C(Cc3cccs3)CC2)cn1` [Compound 88, (E)-N-(5-(3-oxo-3-(4-(thiophen-2-ylmethyl)-5,6-dihydropyridin-1(2H)-yl)prop-1-en-1-yl)pyridin-2-yl)acetamide], the MIC with MRSA, with MRSE and with MSSA was above 128 µg/mL in each case. Also, in the series on Fab I, the “FAB-I inhibition %@1 μM” value is 87%. Moreover, the “Percentage of compound remained after 15 min” value in series [1] is given as 11.1%. Further, the “Percentage of compound remained after 60 min” value in series [1] is 5.5%.

For `O=C(/C=C/c1cnc2c(c1)CN(CCN1CCOCC1)C(=O)N2)N1CC=C(Cc2cccs2)CC1` [Compound 90, (E)-3-(2-morpholinoethyl)-6-(3-oxo-3-(4-(thiophen-2-ylmethyl)-5,6-dihydropyridin-1(2H)-yl)prop-1-en-1-yl)-3,4-dihydro pyrido[2,3-d]pyrimidin-2(1H)-one], the MIC in the series on MRSA, in the series on MRSE and with MSSA was above 128 µg/mL in each case. Further, in the series with Fab I, the “FAB-I inhibition %@1 μM” value was determined as 89%. The “Percentage of compound remained after 15 min” value in series [1] turned out to be 32.4%. In addition, the “Percentage of compound remained after 60 min” value in series [1] was 22.9%.

In the case of `O=C1CCNc2cc(/C=C/C(=O)N3CC=C(Cc4cccs4)CC3)cnc2N1` [Compound 91, (E)-8-(3-oxo-3-(4-(thiophen-2-ylmethyl)-5,6-dihydropyridin-1(2H)-yl)prop-1-en-1-yl)-2,3-dihydro-1H-pyrido[2,3-b][1,4]diazepin-4(5H)-one], the MIC with MRSA is 0.5 µg/mL (≈ 1.27 µM); in the series on MRSE, 0.5 µg/mL (≈ 1.27 µM); in the series on MSSA it was 0.25 µg/mL (≈ 0.634 µM). Also, in the series with Fab I, the “FAB-I inhibition %@1 μM” value is listed as 93%. Besides, the “Percentage of compound remained after 15 min” value in series [1] is given as 81.3%. Besides, the “Percentage of compound remained after 60 min” value in series [1] amounted to 79.3%.

As for `CN1CC(=O)Nc2ncc(/C=C/C(=O)N3CC=C(Cc4cccs4)CC3)cc2C1` [Compound 93, (E)-4-methyl-7-(3-oxo-3-(4-(thiophen-2-ylmethyl)-5,6-dihydropyridin-1(2H)-yl)prop-1-en-1-yl)-4,5-dihydro-1H-pyrido[2,3-e][1,4]diazepin-2(3H)-one], the MIC came out at 0.5 µg/mL (≈ 1.22 µM) with MRSA, 1 µg/mL (≈ 2.45 µM) in the series on MRSE and 0.5 µg/mL (≈ 1.22 µM) in the series with MSSA. In addition, the “FAB-I inhibition %@1 μM” value with Fab I was found to be 93%. Moreover, the “Percentage of compound remained after 15 min” value in series [1] was found to be 16.1%. Besides, in series [1], the “Percentage of compound remained after 60 min” value is recorded as 1.1%.
